Test [1] deals with T1, human indoleamine 2,3-dioxygenase 1 (hIDO1) (Homo sapiens, UniProt P14902).
T1 construct: His tag (N); purchased BPS Bioscience, San Diego, Calif., USA; host or cells: E. coli
As to the kind of experiment: In-vitro human indoleamine 2,3-dioxygenase 1 (IDO1) enzyme assay. It counts as biochemical. Conditions: for pIC50: hIDO1 enzyme; for inhibition at 1 µM: hIDO1 enzyme at 1.0 μM concentration; for inhibition at 10 µM: hIDO1 enzyme at 10.0 μM concentration. In outline:
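His-tagged hIDO1 (E. coli, 50 ng) incubated with 80 μM tryptophan, 10 mM ascorbate, 10 μM methylene blue, catalase and 0.01% Tween-20 in 50 mM sodium phosphate pH 6.5, 60 min, 37 °C. Piperidine converts N-formylkynurenine to fluorescent NFK-PIP (ex 400/em 500 nm); IC50 by nonlinear regression.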

Test [2] has as its target T2, human tryptophan 2,3-dioxygenase (hTDO) (Homo sapiens, UniProt P48775).
T2 construct: His tag (N); purchased BPS Bioscience, San Diego, Calif., USA; host or cells: E. coli
Briefly: In-vitro human tryptophan 2,3-dioxygenase (TDO) enzyme assay. Format: biochemical. Conditions: for inhibition at 1 µM: hTDO enzyme at 1.0 μM concentration; for inhibition at 10 µM: hTDO enzyme at 10.0 μM concentration. The method, boiled down: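 N-His-tagged hTDO expressed in E. coli (125 ng) incubated with 200 μM L-tryptophan, 100 mM sodium phosphate pH 7.0, 0.01% Tween-20, 100 μM ascorbate, 60 min at 37 °C. Product converted with 200 mM piperidine (65 °C, 20 min) to NFK-PIP, fluorescence 400/500 nm; IC50 by nonlinear regression.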

Consider 31 compounds from patent US20190031665A1, “DERIVATIVES OF PYRROLOIMIDAZOLE OR ANALOGUES THEREOF WHICH ARE USEFUL FOR THE TREATMENT OF INTER ALIA CANCER” (EMCURE PHARMACEUTICALS LIMITED, priority 2016, published 2019).

One may read the pIC50 as the negative decadic logarithm of the IC50, by convention in mol/L. Low readings indicate a high IC50, high ones a low IC50. A word on the inhibition: it is the change of the read-out against control, counted positive when it falls. A higher inhibition goes with a strong effect.

pIC50: −log10 of the molar value.

T2 sequence (P48775 whole entry): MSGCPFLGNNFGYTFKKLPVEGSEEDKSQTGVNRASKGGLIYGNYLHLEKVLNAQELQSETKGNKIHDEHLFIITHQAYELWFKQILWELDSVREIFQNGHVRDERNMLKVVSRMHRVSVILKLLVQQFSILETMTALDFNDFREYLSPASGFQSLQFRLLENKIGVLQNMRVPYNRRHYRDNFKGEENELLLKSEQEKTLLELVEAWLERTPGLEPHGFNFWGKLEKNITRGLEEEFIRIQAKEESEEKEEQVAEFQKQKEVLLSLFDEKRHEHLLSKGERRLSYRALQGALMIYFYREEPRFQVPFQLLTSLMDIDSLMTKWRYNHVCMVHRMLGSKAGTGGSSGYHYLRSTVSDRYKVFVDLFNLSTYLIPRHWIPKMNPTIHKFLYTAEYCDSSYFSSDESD
T1 sequence (P14902 whole entry): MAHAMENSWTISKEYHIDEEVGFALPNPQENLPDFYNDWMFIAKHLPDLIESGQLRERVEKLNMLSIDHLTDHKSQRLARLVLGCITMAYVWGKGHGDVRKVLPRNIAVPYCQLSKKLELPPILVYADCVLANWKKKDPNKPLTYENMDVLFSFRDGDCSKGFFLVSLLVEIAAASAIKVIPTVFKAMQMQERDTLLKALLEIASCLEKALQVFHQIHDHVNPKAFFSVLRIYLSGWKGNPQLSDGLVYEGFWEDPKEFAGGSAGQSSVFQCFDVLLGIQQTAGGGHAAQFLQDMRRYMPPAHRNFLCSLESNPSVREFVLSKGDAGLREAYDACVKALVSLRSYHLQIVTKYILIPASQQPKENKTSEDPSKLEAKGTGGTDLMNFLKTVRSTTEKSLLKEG

Turning to `CC1=C(c2ccccc2)C(CC(=O)c2ccccc2)n2cncc21` (single isomer, unassigned) [Example 30], in test [1], the pIC50 was under 6.30, the inhibition at 1 µM is at least 50% and the inhibition at 10 µM is at least 50%. For the same compound, in test [2], the inhibition at 1 µM was at least 50% and the inhibition at 10 µM is at least 50%.
As to `CC1=C(c2ccccc2)C(CC(=O)C2CCCN2S(=O)(=O)c2ccc(C)cc2)n2cncc21` (stereo not shown) [Example 113], in test [1], the inhibition at 1 µM was at most 50% and the inhibition at 10 µM was at least 50%. Moreover, in test [2], the inhibition at 1 µM was at least 50%.
With `CC1=C(c2ccccc2)C(CC(=O)c2cccc(F)c2)n2cncc21` (stereo not shown) [Example 20, 1-(3-Fluoro-phenyl)-2-(7-methyl-6-phenyl-5H-pyrrolo[1,2-c]imidazol-5-yl)-ethanone], in test [1], the pIC50 was under 6.30, the inhibition at 1 µM is at least 50% and the inhibition at 10 µM was at least 50%. Further, in test [2], the inhibition at 1 µM is at least 50% and the inhibition at 10 µM is at least 50%.
For `CC1=C(c2ccccc2)C(CC(=O)c2ccc3ccccc3c2)n2cncc21` (stereo not shown) [Example 25, 2-(7-Methyl-6-phenyl-5H-pyrrolo[1,2-c]imidazol-5-yl)-1-naphthalen-2-yl-ethanone], in test [1], the pIC50 is over 6.30, the inhibition at 1 µM is at least 50% and the inhibition at 10 µM is at least 50%. In test [2], the inhibition at 1 µM is at least 50% and the inhibition at 10 µM is at least 50%.
In test [1], `CC1=C(c2cccc(F)c2)C(CC(=O)c2ccccc2)n2cncc21` (stereo not shown) [Example 15, 2-[6-(3-Fluoro-phenyl)-7-methyl-5H-pyrrolo[1,2-c]imidazol-5-yl]-1-phenyl-ethanone] showed an inhibition at 1 µM of at most 50% and an inhibition at 10 µM of at least 50%. In test [2], this compound showed an inhibition at 10 µM of at least 50%.
Consider `CC1=C(c2ccccc2)C(CC(=O)c2ccc(-c3ccc(C)cc3)cc2)n2cncc21` (stereo not shown) [Example 62], for which, in test [1], the pIC50 is over 6.30, the inhibition at 1 µM was at least 50% and the inhibition at 10 µM is at least 50%. The same compound registered an inhibition at 1 µM in test [2] of at least 50%.
In test [1], `CC1=C(c2ccccc2)C(CC(=O)c2ccc(Br)cc2)n2cncc21` (stereo not shown) [Example 51, 1-(4-bromophenyl)-2-(7-methyl-6-phenyl-5H-pyrrolo[1,2-c]imidazol-5-yl)ethan-1-one] gave a negative logarithm of the IC50 (pIC50) of under 6.30, an inhibition at 1 µM of at least 50% and an inhibition at 10 µM of at least 50%. In test [2], this compound displayed an inhibition at 1 µM of at least 50%.
In the case of `CC1=C(c2ccccc2)C(CC(=O)c2cc(F)ccc2F)n2cncc21` (stereo not shown) [Example 36, 1-(2,5-difluorophenyl)-2-(7-methyl-6-phenyl-5H-pyrrolo[1,2-c]imidazol-5-yl)ethan-1-one], the inhibition at 1 µM in test [1] and in test [2] was at least 50% in each case. Further, the inhibition at 10 µM in test [1] and in test [2] was at least 50% throughout.
For the compound `CC1=C(c2ccccc2)C(CC(=O)c2ccc(-c3ccc(O)cc3)cc2)n2cncc21` (stereo not shown) [Example 57], in test [1], the pIC50 is over 6.30, the inhibition at 1 µM was at least 50% and the inhibition at 10 µM was at least 50%. The same compound gave an inhibition at 1 µM in test [2] of at most 50%.
In test [1], `CCOC(=O)CC1C(c2ccccc2)=C(C)c2cncn21` (stereo not shown) [Example 22] came in with an inhibition at 1 µM of at most 50% and an inhibition at 10 µM of at least 50%. The inhibition at 10 µM in test [2] was at least 50%.
In test [1], `CC1=C(c2ccccc2)C(CC(=O)c2ccc(N3CCCCC3)cc2)n2cncc21` (stereo not shown) [Example 50, 2-(7-methyl-6-phenyl-5H-pyrrolo[1,2-c]imidazol-5-yl)-1-(4-(piperidin-1-yl)phenyl)ethan-1-one] yielded an inhibition at 1 µM of at most 50% and an inhibition at 10 µM of at least 50%. The same compound came in with an inhibition at 1 µM in test [2] of at least 50%.
In the case of `CC1=C(c2ccccc2)C(CC(O)C2CCC(c3ccccc3)CC2)n2cncc21` (stereo not shown) [Example 186], in test [1], the pIC50 is over 6.30, the inhibition at 1 µM is at least 50% and the inhibition at 10 µM was at least 50%. This compound also returned an inhibition at 1 µM in test [2] of at most 50%.
In test [1], `CC1=C(c2ccccc2)C(C[C@H](O)C2CCC(C(=O)O)CC2)n2cncc21` (stereo partly shown) [Example 133] came in with an inhibition at 1 µM of at most 50% and an inhibition at 10 µM of at least 50%. This compound displayed an inhibition at 1 µM in test [2] of at least 50%.
Consider `CC1=C(c2ccccc2)C(CC(O)C2CCN(C(=O)Nc3cccc(Cl)c3)CC2)n2cncc21` (stereo not shown) [Example 181], for which, in test [1], the negative-log IC50 (pIC50) was over 6.30, the inhibition at 1 µM was at least 50% and the inhibition at 10 µM was at least 50%. Further, in test [2], the inhibition at 1 µM is at most 50%.
Turning to `CC1=C(c2ccccc2)C(C[C@H](O)C2CCC(C(=O)Nc3ccccc3)CC2)n2cncc21` (stereo partly shown) [Example 112], in test [1], the negative-log IC50 (pIC50) is over 6.30, the inhibition at 1 µM was at least 50% and the inhibition at 10 µM is at least 50%. Besides, in test [2], the inhibition at 1 µM is at least 50%.
On to `CC1=C(c2ccccc2)C(CC(=O)c2ccc(C(=O)Nc3ccc(F)cc3F)cc2)n2cncc21` (stereo not shown) [Example 81], for which, in test [1], the negative-log IC50 (pIC50) is over 6.30, the inhibition at 1 µM is at least 50% and the inhibition at 10 µM was at least 50%. The same compound came in with an inhibition at 1 µM in test [2] of at least 50%.
`CC1=C(c2ccccc2)C(CC(=O)C2CCC(c3ccccc3)CC2)n2cncc21` (stereo not shown) [Example 136]: in test [1], the inhibition at 1 µM is at least 50% and the inhibition at 10 µM was at least 50%. This compound had an inhibition at 1 µM in test [2] of at least 50%.
`CC1=C(c2ccccc2)C(CC(=O)c2ccc(-c3cccnc3)cc2)n2cncc21` (stereo not shown) [Example 55]: in test [1], the pIC50 is over 6.30, the inhibition at 1 µM is at least 50% and the inhibition at 10 µM was at least 50%. In addition, the inhibition at 1 µM in test [2] is at least 50%.
Take `CC1=C(c2ccccc2)C(CC(=O)C2CCN(S(=O)(=O)c3ccccc3)CC2)n2cncc21` (stereo not shown) [Example 143]: the inhibition at 1 µM in test [1] is at most 50%; in test [2], at least 50%. Further, the inhibition at 10 µM in test [1] is at least 50%.
In the case of `CC1=C(c2ccccc2)C(C[C@H](O)C2CCC(C(=O)NC3CCCCC3)CC2)n2cncc21` (stereo partly shown) [Example 126], in test [1], the negative-log IC50 (pIC50) was over 6.30, the inhibition at 1 µM is at least 50% and the inhibition at 10 µM was at least 50%. For the same compound, the inhibition at 1 µM in test [2] was at least 50%.
Turning to `CC1=C(c2ccccc2)C(CC(=O)C2CCC(C(=O)Nc3ccccc3)CC2)n2cncc21` (stereo not shown) [Example 109, 4-(2-(7-methyl-6-phenyl-5H-pyrrolo[1,2-c]imidazol-5-yl)acetyl)-N-phenylcyclohexane-1-carboxamide], the inhibition at 1 µM in test [1] is at most 50%; in test [2], at least 50%. Besides, the inhibition at 10 µM in test [1] is at least 50%.
Turning to `OC(CC1C2=C(CCCC2)c2cncn21)c1cccc(Cl)c1` (stereo not shown) [Example 4], the inhibition at 10 µM in test [1] was at most 50%; in test [2], at least 50%.
Take `CC1=C(c2cccc(F)c2)C(CC(O)c2ccccc2)n2cncc21` (stereo not shown) [Example 16, 2-[6-(3-Fluoro-phenyl)-7-methyl-5H-pyrrolo[1,2-c]imidazol-5-yl]-1-phenyl-ethanol]: in test [1], the inhibition at 1 µM was at most 50% and the inhibition at 10 µM was at least 50%. Also, the inhibition at 10 µM in test [2] was at least 50%.
For the compound `CC1=C(c2ccccc2)C(CC(=O)c2ccc(Oc3ccccc3F)cc2)n2cncc21` (stereo not shown) [Example 76, 1-(4-(2-fluorophenoxy)phenyl)-2-(7-methyl-6-phenyl-5H-pyrrolo[1,2-c]imidazol-5-yl)ethan-1-one], in test [1], the pIC50 was over 6.30, the inhibition at 1 µM is at least 50% and the inhibition at 10 µM is at least 50%. In test [2], this compound returned an inhibition at 1 µM of at most 50%.
In test [1], `CC1=C(c2ccccc2)C(CC(O)C2CCN(C(=O)c3ccccc3)CC2)n2cncc21` (stereo not shown) [Example 144] gave a pIC50 of over 6.30, an inhibition at 1 µM of at least 50% and an inhibition at 10 µM of at least 50%. In test [2], this compound gave an inhibition at 1 µM of at most 50%.
In test [1], `CC1=C(c2ccccc2)C(CC(O)C2CCN(Cc3ccccc3)CC2)n2cncc21` (stereo not shown) [Example 141] came in with an inhibition at 1 µM of at most 50% and an inhibition at 10 µM of at most 50%. The compound further gave an inhibition at 1 µM in test [2] of at most 50%.
In test [1], `CC1=C(c2ccc(C)cc2)C(CC(=O)C2CCCCC2)n2cncc21` (stereo not shown) [Example 86, 1-Cyclohexyl-2-(7-methyl-6-(p-tolyl)-5H-pyrrolo[1,2-c]imidazol-5-yl)ethan-1-one] yielded an inhibition at 1 µM of at most 50% and an inhibition at 10 µM of at most 50%. This compound displayed an inhibition at 1 µM in test [2] of at least 50%.
In test [1], `O=C(CC1C(c2ccccc2)=C(c2ccccc2)c2cncn21)C1CCCCC1` (stereo not shown) [Example 102] displayed an inhibition at 1 µM of at most 50% and an inhibition at 10 µM of at most 50%. In test [2], this compound came in with an inhibition at 1 µM of at most 50%.
As to `CC1=C(c2ccccc2)C(CC(O)c2ccc(-c3ccsc3)cc2)n2cncc21` (stereo not shown) [Example 60], in test [1], the inhibition at 1 µM was at most 50% and the inhibition at 10 µM was at least 50%. In test [2], this compound had an inhibition at 1 µM of at most 50%.
In test [1], `CC1=C(c2ccccc2)C(CC(=O)C2CN(C(=O)c3ccccc3)C2)n2cncc21` (stereo not shown) [Example 159, 1-(1-Benzoyl-azetidin-3-yl)-2-(7-methyl-6-phenyl-5H-pyrrolo[1,2-c]imidazol-5-yl)-ethanone] had an inhibition at 1 µM of at most 50% and an inhibition at 10 µM of at least 50%. Also, the inhibition at 1 µM in test [2] is at most 50%.
As to `CCCCC(O)CC1C(c2ccccc2)=C(C)c2cncn21` (stereo not shown) [Example 170, 1-(7-Methyl-6-phenyl-5H-pyrrolo[1,2-c]imidazole-5-yl)-hexan-2-ol], in test [1], the pIC50 was under 6.30, the inhibition at 1 µM was at most 50% and the inhibition at 10 µM was at least 50%. In test [2], this compound displayed an inhibition at 1 µM of at least 50% and an inhibition at 10 µM of at least 50%.
